Assay results: US20090170773A1, “NOVEL USE OF G-PROTEIN-CONJUGATED RECEPTOR AND LIGAND THEREOF” (RIKEN, priority 2006, published 2009)

How the values were obtained:
RAIG3 = target: T1, RAIG3 (Homo sapiens, UniProt Q9NQ84); test: Insulin secretion in MIN6 cells having RAIG3 expressed forcibly (ELISA); type: cell-based; settings: 0.6 mM 1,5-AG added to 2.8 mM glucose, FIG. 2b
T1 construct: expressed in transfected cells; host or cells: mouse insulinoma MIN6 cells, transient transfection with pIRES2-EGFP (CLONTECH) vector
Protocol: (§1) Mouse insulinoma MIN6 cells (supplied by Dr. Junichi Miyazaki at the Division of Stem Cell Regulation Research, Department of Molecular Therapeutics, G6 Division of Pathophysiology and Therapeutics, Osaka University Graduate School of Medicine) were cultured in a 24-well plate containing a DMEM comprising 15% fetal calf serum (inactivated by treatment at 56° C. for 30 minutes), 5 μl/l β-mercaptoethanol and 4.5 g/l glucose, in an atmosphere of 5% CO2/95% air, at 37° C. and low density. cDNAs of RAIG2 and RAIG3 were obtained from a human brain or liver cDNA library by a conventional method of PCR. This was inserted into pIRES2-EGFP (CLONTECH). After 24 hours, the above-described cells were transfected with an expression vector containing the RAIG2 or RAIG3 cDNA. The transfection was performed using Lipofectamin 2000 (Invitrogen), as directed in the manufacturer's manual. After 48 hours of further cultivation, the cells were retained in a KRBB solution [129 mM NaCl, 4.8 mM KCl, 1.2 mM MgSO4, 1.2 mM KH2PO4, 4.8 mM NaHCO3, 10 mM HEPES, 2.5 mM CaCl2, 0.2% bovine serum albumin (pH adjusted to 7.4)] containing 2.8 mM glucose at 37° C. for 15 minutes, and then washed. […] Each 10 μl portion of the culture supernatant was taken, and the insulin content was measured by ELISA.

RAIG2 = target: T2, RAIG2 (Homo sapiens, UniProt Q9NZH0); test: Insulin secretion in MIN6 cells having RAIG2 expressed forcibly (ELISA); type: cell-based, mouse; settings: 0.6 mM 1,5-AG added to 2.8 mM glucose, FIG. 2a
T2 construct: expressed in transfected cells; host or cells: mouse insulinoma MIN6 cells, transient transfection with pIRES2-EGFP (CLONTECH) vector
Protocol: as §1

T2 sequence (Q9NZH0 29-403): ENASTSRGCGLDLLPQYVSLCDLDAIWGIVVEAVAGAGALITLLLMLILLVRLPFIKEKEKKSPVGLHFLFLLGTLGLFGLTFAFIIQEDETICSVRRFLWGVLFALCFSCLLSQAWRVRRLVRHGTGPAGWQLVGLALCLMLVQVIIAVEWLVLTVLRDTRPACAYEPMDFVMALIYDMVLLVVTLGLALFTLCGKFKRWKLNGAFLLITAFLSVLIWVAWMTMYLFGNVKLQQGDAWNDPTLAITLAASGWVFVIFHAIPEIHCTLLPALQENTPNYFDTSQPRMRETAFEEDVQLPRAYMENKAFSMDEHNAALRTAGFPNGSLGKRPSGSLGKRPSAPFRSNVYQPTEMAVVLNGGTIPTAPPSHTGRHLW
T1 sequence (Q9NQ84 1-453 isoform Q9NQ84-2): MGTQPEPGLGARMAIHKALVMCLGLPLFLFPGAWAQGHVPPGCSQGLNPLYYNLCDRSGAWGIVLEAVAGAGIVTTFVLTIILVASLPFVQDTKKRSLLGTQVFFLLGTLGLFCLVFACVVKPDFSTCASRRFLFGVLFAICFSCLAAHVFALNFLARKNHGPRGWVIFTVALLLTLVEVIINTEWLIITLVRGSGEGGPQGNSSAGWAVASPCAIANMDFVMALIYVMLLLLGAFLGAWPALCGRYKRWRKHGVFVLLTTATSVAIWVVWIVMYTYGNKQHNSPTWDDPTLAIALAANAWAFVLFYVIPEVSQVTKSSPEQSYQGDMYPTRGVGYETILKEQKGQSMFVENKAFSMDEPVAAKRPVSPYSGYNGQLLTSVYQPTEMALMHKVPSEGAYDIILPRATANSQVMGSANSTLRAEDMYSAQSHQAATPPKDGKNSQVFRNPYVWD

OC[C@H]1OC[C@H](O)[C@@H](O)[C@@H]1O [1,5-AG, 1,5-anhydroglucitol]
insulin release (RAIG3): insulin release equivalent to that with 20 mM glucose | insulin release (RAIG2): insulin release equivalent to that with 20 mM glucose
